Series [1] relates to ZIKV^Br. Briefly: Virus yield assay, ZIKV^Br on HMC3 cells. It counts as cell-based. Conditions: Zika virus.
Series [2] relates to ZIKV^Br. Description: Virus yield assay, ZIKV^Br on C6/36 cells. It is filed as cell-based. Conditions: Zika virus, 95% CI in brackets.
Series [3] in a line: Cytotoxicity by WST-8, C6/36 cells. It counts as cell-based. Conditions: Aedes albopictus, 95% CI in brackets. As for the experimental part:
(§1) Cytotoxic/cytostatic effects were evaluated in uninfected cells by WST‐8 (Orangu, Cell Guidance Systems): 1 × 10^4 cells/well in a 96‐well plate were incubated in the presence of threefold serial dilutions of compounds, from 0.30 to 218 μM, for 48 h. Medium was replaced with 50 μL of 10% WST‐8, in DMEM, 2% FBS. Following a 1‐h incubation at 37°C, optical density (OD) in wells was measured at 450 nm using Varioskan LUX (ThermoFisher Scientific). CC50 was calculated using the formula: %viability=100×(ODcompound/ODuntreated control) where ODcompound and ODuntreated are the OD of the cells treated with compound or DMSO, respectively.
A general note: Formazan colour is commonly taken as a measure of viable cells.

A short description of series [4]: Cytotoxicity by WST-8, A549 cells. Conditions: human, 95% CI in brackets. It counts as cell-based. How it is done:
as §1

For a further series, the system named is WNV. Briefly: microbe, parasite or virus in culture. It is filed as cell-based. The settings on record: West Nile virus; WNV (Huh-7); 95% CI in brackets.
A further series concerns SARS-CoV-2^Mi. Description: microbe, parasite or virus in culture. It is filed as cell-based. Conditions: Severe acute respiratory syndrome coronavirus 2; SARS-CoV-2^Mi (Vero TMPRSS); 95% CI in brackets.
The test system of the next series is CVB5. Briefly: Plaque reduction assay, CVB5 on A549 cells. It is filed as cell-based, Coxsackievirus B5. The settings on record: Enterovirus B, 95% CI in brackets.
Another series relates to CHIKV. Briefly: Plaque reduction assay, CHIKV on Huh-7 cells. It counts as cell-based. Conditions: Chikungunya virus, CHIKV (Huh-7), 95% CI in brackets. (In a plaque reduction assay, fewer plaques than in the control indicate reduced infectivity or spread.)
For the next series, the system named is IAV. Description: microbe, parasite or virus in culture. It counts as cell-based. Conditions: Influenza A virus, MDCK.
A further series deals with TOSV. Briefly: Plaque reduction assay, TOSV on VeroE6 cells. It is filed as cell-based. The settings on record: Toscana virus, Vero C1008.
Series [5] concerns ZIKV NS5. Description: ZIKV protein synthesis by western blot (NS5), Huh-7 cells. It counts as cell-based, Zika virus. The settings on record: MOI 1, 1x, 5x, 10x EC50 (PS1097 0.6, 3, 6 μM; SOF 1.5, 7.5, 15 μM), 48 h. How it is done: (§2) Immunoblotting was performed as described.
(§3) Viral protein levels in cell lysates were analyzed by immunoblotting (Figure 3A,B), while virion release was assessed by quantifying ZIKV RNA in supernatants (Figure 3C).
(§4) Impact of treatment on ZIKV protein synthesis was evaluated on cell extracts analyzed by western blot using anti‐ ZIKV NS5, or anti‐GAPDH as a housekeeping control.
On the technique in general: A western blot detects proteins with antibodies after separation by electrophoresis.

Series [6] concerns ZIKV NS5. Briefly: ZIKV protein synthesis by western blot (NS5), Vero E6 cells. It is filed as cell-based, Zika virus. The settings on record: MOI 1, 1x, 5x, 10x EC50, 48 h. As for the experimental part: as §2, §3, §4
A further series can be described thus: in vitro. The settings on record: simian.
A further series relates to FAM134B. Briefly: Western blot of ER proteins in Huh-7 cells: FAM134B. The settings on record: 6 μM PS1097, 48 h.

Structures are written as SMILES.

For orientation: EC50 means the concentration needed to bring the measured effect to its halfway point. Regarding `O=c1[nH]c2cc3cccnc3c(Cl)c2nc1-c1cccs1` [PS1097, 5‐chloro‐3‐(thiophen‐2‐yl) pyrido[2,3‐g] quinoxalin‐2(1H)‐one], the EC50 in the series on ZIKV^Br [1] was > 100 µM; in the series on ZIKV^Br [2], 5.51 µM; with WNV, 1.15 µM; in the series on SARS-CoV-2^Mi it was 0.1 µM; in the series with CVB5, 4.47 µM; in the series with CHIKV it was 4.4 µM. Further, the EC50 with IAV and with TOSV was > 50 µM in each case. Also, the CC50 at 48 h in series [3] stood at 150 µM; in [4] (A549 cells (CVB5 and HSV2 rows of Table 2)), 218 µM; in [4] (A549 cells (ZIKV^Br row of Table 2)) it was 130 µM. Besides, in the series on ZIKV NS5 [5], the “ZIKV protein expression (NS5, western blot)” value was “downregulated viral protein expression”. In addition, the “ZIKV protein content (NS5, western blot)” value in the series with ZIKV NS5 [6] was “consistently reduced protein levels”. Also, the CC50 in the series “in vitro” stood at 86.2 µM; in the series “in vitro” (CC50, Vero TMPRSS cells (SARS-CoV-2^Mi row of Table 2), 95% CI in brackets), 436 µM. Moreover, the “FAM134B protein content (western blot)” value with FAM134B is on record as “virtually unchanged”.

The values above are taken from paper PMC12445440 (Journal of Medical Virology, 2025).
